# Experimental data taken from patent US20250154105A1, “POLYCYCLIC COMPOUND AND USE THEREOF” (TYK MEDICINES, INC., priority 2021, published 2025).
# Experiments:
# [1] = test system: YAP-TEAD; experiment: YAP-TEAD inhibitor activity by Nano luciferase method (8xGTiiC-nLuc reporter in 293T cells); format: cell-based; details: Homo sapiens, HEK-293T, 48 hours incubation, read-out: Nano-luciferase detection (IC50)
# Text: EXAMPLE 2: YAP-TEAD INHIBITOR ACTIVITY WAS DETECTED BY NANO LUCIFERASE METHOD
# (1) Experimental materials and equipments: 293T cells were purchased from NANJING COBIOER BIOSCIENCES CO., LTD. DMEM medium (High sugar, no phenol red, Bio-Channel), DMSO (dimethyl sulfoxide), Lipo6000™ transfection reagent (Beyotime), pGL3B-8xGTiiC-nLuc-CMV-fLuc plasmid, 0.25% EDTA-Tripsin (trypsin digest), 1×PBS (phosphate buffer, PH7.2), 96-well white cell culture plate (PerkinElmer), fetal bovine serum (FBS), 10,000 U/mL penicillin-G/streptomycin, high-speed freezing centrifuge (EPPENDORF 5810R), 37° C. CO2 incubator, Vi-cell® Cell Counter, Envision Microplate Reader (PerkinElmer).
# The revived 293T cells were inoculated into a 10 cm culture dish and placed in an incubator with 5% CO2, and cultured at constant temperature of 37° C. To ensure transfection efficiency, cells at logarithmic phase (cell density of approximately 50%-70%) should be used.
# On the day before transfection, cells at the logarithmic phase were digested with Trypsin-EDTA, and culture medium was added to terminate digestion. The cell suspension was prepared by blowing and mixing using a pipette.
# Cell concentration was measured using Vi-cell, and the cell suspension was diluted to a suspension of 5*10^^5 cells per milliliter. After preparing the cell suspension, the suspension was gently mixed. 10 ml of liquid was added to a 10 cm culture dish. In this way, the number of cells in each 10 cm culture dish was 5*10^^6. The cells were incubated at a constant temperature of 37° C. for 1 day in an incubator with 5% CO2.
# Two clean and sterile centrifuge tubes were taken and added with 750 μL opti-MEM Medium without antibiotics and serum, respectively. Then one tube was added with 15 μg Plasmid (pGL3B-8xGTiiC-nLuc-CMV-fLuc), and gently blew and mixed well using a pipette; the other tube was added with Lipo6000 transfection reagent, and gently blew and mixed using a pipette. After standing at room temperature for 5 minutes, the culture solution containing DNA was added gently to the culture solution containing Lipo6000 transfection reagent, and mixed well by gently inverting the centrifuge tube, then standing at room temperature for 5 minutes.
# The above mixture was added evenly to a 10 cm culture dish and replaced with fresh complete culture medium after 6 hours of cultivation.
# After transfection for 1 day, cells were digested with Trypsin EDTA, and culture medium was added to terminate the digestion. The cell suspension was prepared by blowing and mixing using a pipette.
# Cell concentration was measured using Vi-cell, and the cell suspension was diluted to a suspension of 20000 cells per milliliter.
# After preparing the cell suspension, the suspension was gently mixed, and added to 96-well plate with 100 μL per well. Thus, the density of the cells to be tested is 2000 cells per well.
# The inoculated cell culture plate was placed in the incubator for cultivation, and after about 24 hour, compounds with concentration gradient were added.
# 10 mM compound stock solution was diluted with culture medium to 50 μM. Compound solution of 50 μM was added to the third column of the deep well plate, 216 μL of culture medium containing 0.5% DMSO was added to the fourth to eleventh columns, successively.
# Gradient dilution: taking 100 μL of solution from the third column and adding the solution to the fourth column and mixing well; then taking 100 µL of solution from the fourth column again and adding the solution to the fifth column, repeating this operation until the eleventh column.
# Taking 25 μL of compound solution from the deep well plate and adding it to a 96-well culture plate using a multi-channel pipette. Repeating four times on the 96 well plate for each compound. Finally, a concentration gradient of 1:3.16 was formed in the 96-well plate with a maximum concentration of 10,000 nM. The • (5) Addition of Nano Luciferase Detection Reagent and Read […]
# [2] = test system: human pleural mesothelioma cells NCI-H226; experiment: Cell anti-proliferation experiment (CCK8), NCI-H226; format: cell-based
# Text: TEST EXAMPLE 1 CELL ANTI-PROLIFERATION EXPERIMENT
# Determination of proliferation inhibition of YAP-TEAD inhibitor compounds on human pleural mesothelioma cells NCI-H226
# Experimental materials and equipments: Human pleural mesothelioma cells NCI-H226 was purchased from NANJING COBIOER BIOSCIENCES CO., LTD. RPMI-1640 medium (Bio-Channel), DMSO (dimethyl sulfoxide), CCK8 (WST-8) Cell Assay Kit (Beyotime), 0.25% EDTA-Tripsin (trypsin digest), 1×PBS (phosphate buffer, PH7.2), 96-well plate (Corning), fetal bovine serum (FBS), 10,000 U/mL penicillin-G/streptomycin, high-speed freezing centrifuge (EPPENDORF 5810R), enzyme-linked immunosorbent assay (Tecan Spark).
# 1. Cell plating • A) Tumor cells were cultured to 80-90% density in RPMI-1640 (containing 10% FBS and 100 U/mL penicillin-G/streptomycin) under the condition of 37° C., 5% CO2 and saturated humidity. • B) The culture medium was removed from the 10 cm culture dish. • C) Cells were washed with 10 ml 1×PBS. • D) 4 ml of 0.25% EDTA-Tripsin was added to digest pancreatin for 5 minutes in an incubator at 37° C. and 5% CO2. Then the mixture was transferred to a 15 ml centrifuge tube, and centrifuged for 5 minutes at 200 g. The supernatant was discarded to obtain cell precipitation. • E) The cell precipitation was resuspended with 4 ml of […], counted and adjusted to 10,000 cells/ml. • F) The cell suspension was added to a 96-well plate with a volume of 100 μL per well and cultured overnight in an incubator at 37° C. and 5% CO2.
# • Compound dilution • A) Preparation of gradient dilution solutions of the tested compounds: the tested compounds was configured to 1 mM stock solution. Then […] of stock solution was dissolved in 1.5 ml of DMSO-free culture solution, and then 3-fold continuous gradient dilution with 0.1% DMSO culture solution was performed to get a total of 9 concentrations. The diluted concentrations of the compound were as follows: 333.33 nM, 111.11 nM, 37.03 nM, 12.35 nM, 4.15 nM, 1.37 nM, 0.46 nM, 0.15 nM • B) After full mixing, 100 μL of culture compound solution was taken to replace the culture solution in the cell culture plate, with 4 duplicated wells at each concentration; • C) The cells were transferred to the incubator to incubate for 3 days.
# • A) the cell culture plate was taken out and added with 10 μl of CCK-8 (WST-8) solution per well in the biosafety cabinet; • B) The cell culture plate was put back into the incubator and continued to incubate for 3 hours; • C) 450 nm wavelength was selected to measure absorbance value on TECAN enzyme linked immunosorbent assay detector.
# The following formula was used to calculate the cell viability (% Cell Viability); • Cell Viability (%)=[A(Drug-added)-A(Blank)]/[A(0 Drug-added)-A(blank)][…] • A (Drug-added): The absorbance of wells containing cells, CCK8 solution, and drug solution. • A (Blank): The absorbance of wells containing culture medium and CCK8 solution, but without cells. • A (0 Drug-added): The absorbance of wells containing cells, CCK8 solution, but without drug solution. • Cell viability: Cell proliferation viability or cytotoxicity viability was determined by the IC50 value obtained by curve fitting using GraphPad Prism 8 software.
compound,measurement,setting,value
CNS(=O)(=O)c1ccc2c(c1)c1nn(C)cc1c(=O)n2-c1ccc(F)cc1 [Example T-65],IC50,[1],≤ 1 µM
same,IC50,[2],≤ 1 µM
C=CC(=O)Nc1cnc2c(c1)c1ccccc1c(=O)n2-c1ccc(C(F)(F)F)cc1 [Example T-242],IC50,[1],≤ 1 µM
same,IC50,[2],≤ 1 µM
Cn1cc2c(=O)n(-c3ccc(C(F)(F)F)cc3)c3ccc(NS(C)(=O)=O)cc3c2n1 [Example T-190],IC50,[1],≤ 1 µM
same,IC50,[2],≤ 1 µM
C[C@H](NC(=O)c1ccc2c(c1)c1cc(F)ccc1c(=O)n2-c1ccc(C(F)(F)F)cc1)c1ccccn1 [Example T-259],IC50,[1],≤ 1 µM
same,IC50,[2],≤ 1 µM
Cn1cc2c(=O)n(-c3ccc(C(F)(F)F)cc3)c3ccc(C(=O)N[C@@H](c4ccccc4)c4ccccn4)cc3c2n1 [Example T-142],IC50,[1],1 to 5 µM
same,IC50,[2],1 to 5 µM
C[C@H](NC(=O)c1ccc2c(c1)c1c(c(=O)n2-c2ccc(C(F)(F)F)cc2)CCC1F)c1ccccn1 (stereo partly drawn) [Example T-290],IC50,[1],≤ 1 µM
same,IC50,[2],≤ 1 µM
Cc1scc2c1c(=O)n(-c1ccc(C(F)(F)F)cc1)c1ccc(C(=O)N[C@@H](C)c3ccccn3)cc21 [Example T-297],IC50,[1],≤ 1 µM
same,IC50,[2],≤ 1 µM
Cc1c(-c2ccccc2)c(=O)n(-c2ccc(C(F)(F)F)cc2)c2ccc(C(=O)N[C@@H](C)c3ccccn3)cc12 [Example T-279],IC50,[1],1 to 5 µM
same,IC50,[2],≤ 1 µM
Cc1scc2c(=O)n(-c3ccc(C(F)(F)F)cc3)c3ccc(C(=O)N[C@@H](C)c4ccccn4)nc3c12 [Example T-385],IC50,[1],≤ 1 µM
same,IC50,[2],≤ 1 µM
C[C@H](NC(=O)c1ccc2c(c1)c1ncoc1c(=O)n2-c1ccc(C(F)(F)F)cc1)c1ccccn1 [Example T-396],IC50,[1],≤ 1 µM
same,IC50,[2],≤ 1 µM
Cc1cc2cc(C(=O)N[C@@H](C)c3ccccn3)cnc2n(-c2ccc(C(F)(F)F)cc2)c1=O [Example T-460],IC50,[1],≤ 1 µM
same,IC50,[2],≤ 1 µM
C[C@H](NC(=O)c1ccc2c(c1)c1ccccc1c(=O)n2C1CCC(F)(F)CC1)c1ccccn1 [Example T-268],IC50,[1],≤ 1 µM
same,IC50,[2],≤ 1 µM
C[C@H](NC(=O)c1ccc2c(c1)c1cocc1c(=O)n2-c1ccc(C(F)(F)F)cc1)c1ccccn1 [Example T-286],IC50,[1],≤ 1 µM
same,IC50,[2],≤ 1 µM
Cn1cc2c(=O)n(-c3ccc(C(F)(F)F)cc3)c3ccc(NC(=O)N4CCCCC4)cc3c2n1 [Example T-185],IC50,[1],≤ 1 µM
same,IC50,[2],≤ 1 µM
Cc1cc2cc(C(=O)N[C@@H](C)c3cccc(N)n3)ccc2n(-c2ccc(C(F)(F)F)cc2)c1=O [Example T-414],IC50,[1],≤ 1 µM
same,IC50,[2],≤ 1 µM
CNS(=O)(=O)c1ccc2c(c1)c1ncn(C)c1c(=O)n2-c1ccccc1 [Example T-60],IC50,[1],≤ 1 µM
same,IC50,[2],≤ 1 µM
C=CC(=O)Nc1ccc2c(c1)c(C)cc(=O)n2-c1ccc(C(F)(F)F)cc1 [Example T-280],IC50,[1],≤ 1 µM
same,IC50,[2],≤ 1 µM
Cn1cc2c(=O)n(-c3ccc(C(F)(F)F)cc3)c3ccc(C(=O)N4CC(O)C4)cc3c2n1 [Example T-103],IC50,[2],1 to 5 µM
COC[C@@H](C)NC(=O)c1ccc2c(c1)c(=O)ccn2-c1ccc(C(F)(F)F)cc1 [Example T-36],IC50,[1],1 to 5 µM
CN(C)C(=O)c1ccc2c(c1)c1nn(C)cc1c(=O)n2-c1ccc(C(F)(F)F)cc1 [Example T-112],IC50,[2],1 to 5 µM
CCS(=O)(=O)Nc1ccc2c(c1)c(C)cc(=O)n2-c1ccc(C(F)(F)F)cc1 [Example T-442],IC50,[1],≤ 1 µM
CC(C)(C)OC(=O)c1ccc2c(c1)c(=O)ccn2-c1ccc(C(F)(F)F)cc1 [Example T-4],IC50,[1],1 to 5 µM
C[C@H](NC(=O)c1ccc2c(c1)c1c(c(=O)n2-c2ccc(C(F)(F)F)cc2)CC(F)CC1)c1ccccn1 (stereo partly drawn) [Example T-304],IC50,[1],≤ 1 µM
C[C@H](NC(=O)c1ccc2c(c1)c1nn(C)cc1c(=O)n2-c1ccc(C(F)(F)F)cc1)c1ccncc1 [Example T-147],IC50,[2],1 to 5 µM
O=C(c1ccc2c(c1)c(=O)ccn2-c1ccc(C(F)(F)F)cc1)N1CC(O)C1 [Example T-37],IC50,[1],1 to 5 µM
COC[C@@H](C)NC(=O)c1ccc2c(c1)c1nn(C)cc1c(=O)n2-c1ccc(C(F)(F)F)cc1 [Example T-119],IC50,[2],1 to 5 µM
Cn1cc2c(=O)n(-c3ccc(C(F)(F)F)cc3)c3ccc(C(=O)N4CC(C#N)C4)cc3c2n1 [Example T-104],IC50,[2],1 to 5 µM
CC(=O)Nc1ccc2c(c1)c(C)cc(=O)n2-c1ccc(C(F)(F)F)cc1 [Example T-444],IC50,[1],1 to 5 µM
C[C@@H](NC(=O)c1ccc2c(c1)c1nn(C)cc1c(=O)n2-c1ccc(C(F)(F)F)cc1)c1ccccn1 [Example T-106],IC50,[2],1 to 5 µM
Cc1cc2cc(C(=O)N[C@@H](C)c3cccc(N)n3)cnc2n(-c2ccc(C(F)(F)F)cc2)c1=O [Example T-461],IC50,[1],≤ 1 µM
C[C@H](NC(=O)c1ccc2c(c1)c1c(c(=O)n2-c2ccc(C(F)(F)F)cc2)C(F)CCC1)c1ccccn1 (stereo partly drawn) [Example T-305],IC50,[1],≤ 1 µM
C[C@H](NC(=O)c1ccc2c(c1)c1c(c(=O)n2-c2ccc(C(F)(F)F)cc2)CC(F)(F)CC1)c1ccccn1 [Example T-308],IC50,[1],≤ 1 µM
C[C@H](NC(=O)c1ccc2c(c1)c1c(c(=O)n2-c2ccc(C(F)(F)F)cc2)C(F)(F)CCC1)c1ccccn1 [Example T-309],IC50,[1],≤ 1 µM
CC1OCc2c1c(=O)n(-c1ccc(C(F)(F)F)cc1)c1ncc(C(=O)N[C@@H](C)c3ccccn3)cc21 (stereo partly drawn) [Example T-438],IC50,[1],1 to 5 µM
